The results in this text go back to ChEMBL document CHEMBL4425173, “Synthesis, biological evaluation and molecular modeling studies of psammaplin A and its analogs as potent histone deacetylases inhibitors and cytotoxic agents” (Bioorg Med Chem Lett, 2016).

One assay relates to PC-3. Put plainly: Cytotoxicity against human PC3 cells assessed as reduction in cell growth inhibition after 96 hrs by MTT assay. The format is functional. Particulars: PC-3, 96 h. (In general: Formazan colour is commonly taken as a measure of viable cells.)
In assay [1] the target is Histone deacetylase (Homo sapiens) (UniProt Q13547+O15379+Q9UBN7+Q92769+Q9UQL6+Q8WUI4+Q9BY41+Q96DB2+P56524+Q9UKV0+Q969S8). Put plainly: Inhibition of HDAC in human HL60 cells assessed as upregulation of H3 acetylation levels at 2 uM after 18 hrs by SDS-PAGE analysis. It counts as cell-based.
For the next assay, the system named is MCF7. As to the kind of experiment: Cytotoxicity against human MCF7 cells assessed as reduction in cell growth inhibition after 96 hrs by MTT assay. The format is functional. The settings on record: MCF7, 96 h.
In a further assay the test system is HL-60. Put plainly: Cytotoxicity against human HL60 cells assessed as reduction in cell growth inhibition after 72 hrs by trypan blue-staining based hemocytometric analysis. It counts as functional. The settings on record: HL-60, 72 h.
The next assay deals with A549. As to the kind of experiment: Cytotoxicity against human A549 cells assessed as reduction in cell growth inhibition after 96 hrs by MTT assay. Particulars: A549, 96 h. It counts as functional.
A further assay addresses Histone deacetylase. As to the kind of experiment: Inhibition of HDAC in human HeLa cells using Fluor deLys as substrate assessed as deacetylation of substrate by fluorescence assay. It counts as cell-based.

SMILES strings stand for the structures. Active and inactive are the calls of the source. No cut-off for these calls is given here. Some results are limits rather than exact numbers.

On to `CO/N=C(\Cc1ccc(C)cc1)C(=O)NCCSSCCNC(=O)/C(Cc1ccc(C)cc1)=N/OC`, for which the GI50 with PC-3 is more than 50 µM; with MCF7, more than 50 µM; with HL-60, 11.9 µM; in the assay on A549 it was more than 50 µM. The “H3 acetylation upregulation (active/not active)” value in assay [1] is “inactive”. Further, the IC50 on Histone deacetylase was found to be 7.65 µM.
As to `COc1ccc(-c2cc(C(=O)NCCSSCCNC(=O)c3cc(-c4ccc(OC)cc4)on3)no2)cc1`, the 50% growth inhibitory concentration (GI50) is more than 50 µM with PC-3 and 18.3 µM with HL-60. For the same compound, the IC50 at Histone deacetylase came to 8.31 µM.
As to `O=C(NCCSSCCNC(=O)/C(Cc1ccc(O)cc1)=N/O)/C(Cc1ccc(O)cc1)=N/O`, the concentration for 50% growth inhibition (GI50) in the assay with PC-3 was 5.33 µM; in the assay on MCF7, 4.62 µM; in the assay on HL-60, 0.62 µM; with A549, 6.54 µM. Besides, on Histone deacetylase, the IC50 was 0.12 µM.
Take `COc1cc(C/C(=N\O)C(=O)NCCSSCCNC(=O)/C(Cc2ccc(O)c(OC)c2)=N/O)ccc1O`: the GI50 in the assay on PC-3 was found to be 3.41 µM; with MCF7 it was 2.47 µM; with HL-60, 0.28 µM; in the assay with A549 it was 4.84 µM. Besides, the “H3 acetylation upregulation (active/not active)” value in assay [1] was “Active”. Moreover, at Histone deacetylase, the half-maximal inhibitory concentration (IC50) came out at 0.04 µM.
On to `COc1ccc(C/C(=N\O)C(=O)NCCSSCCNC(=O)/C(Cc2ccc(OC)cc2)=N/O)cc1`, for which the GI50 was determined as 5.5 µM in the assay with PC-3, 2.68 µM with MCF7, 0.78 µM in the assay with HL-60 and 6.85 µM with A549. On Histone deacetylase, the half-maximal inhibitory concentration (IC50) stood at 0.12 µM.
The like results for `CC(C)c1ccc(C/C(=N\O)C(=O)NCCSSCCNC(=O)/C(Cc2ccc(C(C)C)cc2)=N/O)cc1` were, in that order, 2.67 µM, 3.91 µM, 0.5 µM, 4.61 µM and 0.21 µM.
For `O=C(NCCSSCCNC(=O)/C(Cc1ccc2c(c1)OCO2)=N/O)/C(Cc1ccc2c(c1)OCO2)=N/O`, the GI50 stood at 2.4 µM in the assay on PC-3, 3.77 µM with MCF7, 0.67 µM with HL-60 and 4.78 µM in the assay on A549. Besides, the “H3 acetylation upregulation (active/not active)” value in assay [1] is “Active”. For the same compound, the IC50 at Histone deacetylase was 0.13 µM.
Turning to `O=C(NCCSSCCNC(=O)c1cc(-c2ccc(O)cc2)on1)c1cc(-c2ccc(O)cc2)on1`, the GI50 in the assay on PC-3 was found to be 31.7 µM; with HL-60, 11.6 µM. The IC50 at Histone deacetylase amounted to 3.14 µM.
The corresponding values for `COc1ccc(-c2cc(C(=O)NCCSSCCNC(=O)c3cc(-c4ccc(OC)cc4)[nH]n3)n[nH]2)cc1` are 26.6 µM, 6.45 µM and 2.77 µM.
As for `Cc1ccc(C/C(=N\O)C(=O)NCCSSCCNC(=O)/C(Cc2ccc(C)cc2)=N/O)cc1`, the 50% growth inhibitory concentration (GI50) in the assay with PC-3 came out at 6.43 µM; with MCF7, 4.3 µM; in the assay on HL-60 it was 0.74 µM; in the assay on A549 it was 8.35 µM. Further, in assay [1], the “H3 acetylation upregulation (active/not active)” value was “Active”. At Histone deacetylase, the half-maximal inhibitory concentration (IC50) is 0.26 µM.
`CO/N=C(\Cc1ccc(Cl)cc1Cl)C(=O)NCCSSCCNC(=O)/C(Cc1ccc(Cl)cc1Cl)=N/OC`: the GI50 in the assay on PC-3 was more than 50 µM; with MCF7 it was 16.5 µM; in the assay on HL-60, 8.64 µM; in the assay with A549 it was 47.1 µM. Besides, the IC50 at Histone deacetylase turned out to be 8.59 µM.
Consider `COc1ccc(C/C(=N\O)C(=O)NCCSSCCNC(=O)/C(Cc2ccc(OC)c(O)c2)=N/O)cc1O`, for which the GI50 turned out to be 3.27 µM in the assay with PC-3, 2.7 µM in the assay on MCF7, 0.23 µM in the assay on HL-60 and 4.74 µM in the assay with A549. Also, the “H3 acetylation upregulation (active/not active)” value in assay [1] was “Active”. Further, the IC50 on Histone deacetylase was 0.03 µM.
In the case of `CO/N=C(\Cc1ccc(OC)cc1)C(=O)NCCSSCCNC(=O)/C(Cc1ccc(OC)cc1)=N/OC`, the concentration for 50% growth inhibition (GI50) in the assay on PC-3 worked out at 26.8 µM; in the assay with MCF7, 16.4 µM; in the assay on HL-60, 5.18 µM; in the assay on A549 it was 38.3 µM. The half-inhibitory concentration (IC50) at Histone deacetylase turned out to be 3.15 µM.
Turning to `O=C(NCCSSCCNC(=O)/C(Cc1ccc(O)c(Br)c1)=N/O)/C(Cc1ccc(O)c(Br)c1)=N/O` [PSAMMAPLIN A], the GI50 in the assay on PC-3 amounted to 3.52 µM; with MCF7 it was 2.26 µM; in the assay with HL-60, 0.29 µM; in the assay with A549 it was 4.5 µM. Also, in assay [1], the “H3 acetylation upregulation (active/not active)” value is “Active”. For the same compound, the 50% inhibitory concentration (IC50) on Histone deacetylase came out at 0.05 µM.
For `O=C(NCCSSCCNC(=O)c1cc(-c2ccc(O)c(Br)c2)[nH]n1)c1cc(-c2ccc(O)c(Br)c2)[nH]n1`, the concentration for 50% growth inhibition (GI50) in the assay on PC-3 amounted to 17.1 µM; with HL-60, 6.14 µM. In addition, the IC50 on Histone deacetylase turned out to be 0.68 µM.
In the case of `O=C(NCCSSCCNC(=O)/C(Cc1cccc(C(F)(F)F)c1)=N/O)/C(Cc1cccc(C(F)(F)F)c1)=N/O`, the 50% growth inhibitory concentration (GI50) in the assay on PC-3 is 6.78 µM; in the assay on MCF7 it was 3.48 µM; in the assay on HL-60, 0.52 µM; with A549, 4.48 µM. For the same compound, at Histone deacetylase, the IC50 was found to be 0.27 µM.
For the compound `O=C(NCCSSCCNC(=O)/C(Cc1ccc(Cl)cc1Cl)=N/O)/C(Cc1ccc(Cl)cc1Cl)=N/O`, the GI50 in the assay on PC-3 is 4.61 µM; with MCF7, 4.98 µM; with HL-60, 0.87 µM; in the assay with A549 it was 6.79 µM. For the same compound, the IC50 at Histone deacetylase was determined as 0.28 µM.
The corresponding values for `CO/N=C(\Cc1cccc(Cl)c1)C(=O)NCCSSCCNC(=O)/C(Cc1cccc(Cl)c1)=N/OC` are 23.1 µM, 14.3 µM, 6.55 µM, 32 µM and 4.5 µM.
The like results for `O=C(NCCSSCCNC(=O)/C(Cc1cccc(Cl)c1)=N/O)/C(Cc1cccc(Cl)c1)=N/O` were, in that order, 5.19 µM, 3.51 µM, 0.57 µM, 5.42 µM and 0.21 µM.
On to `COc1ccc(-c2cc(C(=O)NCCSSCCNC(=O)c3cc(-c4ccc(OC)c(Br)c4)on3)no2)cc1Br`, for which the 50% growth inhibitory concentration (GI50) amounted to 39 µM in the assay on PC-3 and 13.3 µM in the assay on HL-60. Moreover, the IC50 at Histone deacetylase was 4.65 µM.
The corresponding values for `O=C(NCCSSCCNC(=O)c1cc(-c2ccc(O)cc2)[nH]n1)c1cc(-c2ccc(O)cc2)[nH]n1` are 19.8 µM, 4.11 µM and 1.81 µM.
The like results for `COc1ccc(-c2cc(C(=O)NCCSSCCNC(=O)c3cc(-c4ccc(OC)c(Br)c4)[nH]n3)n[nH]2)cc1Br` were, in that order, 16.9 µM, 5.52 µM and 1.86 µM.

In general, GI50 refers to the concentration at which growth is held to half of that of the control. By IC50 is commonly meant the midpoint of a concentration-inhibition curve.
